Reference: patent US20240059691A1 (KALVISTA PHARMACEUTICALS LIMITED, priority 2020, published 2024)

Tests used:
[1] = biological target: Plasma Kallikrein (Homo sapiens (Human), UniProt P03952); assay: Determination of related protease inhibition: Plasma Kallikrein (fluorogenic substrate at Km); assay type: biochemical; details: 25° C., read-out: IC50 (human PKal)
Summary of the method: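 Fluorogenic kinetic assay: human enzyme, substrate at Km, titrated inhibitor; 5 min read at 25 °C; IC50 from % of uninhibited rate.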

[2] = biological target: Human Factor XIIa (Homo sapiens (Human), UniProt P00748); assay: Determination of FXIIa inhibition (fluorogenic substrate H-DPro-Phe-Arg-AFC, IC50 assay); assay type: biochemical; details: substrate H-DPro-Phe-Arg-AFC at Km, 25° C.; class scale A-G
Summary of the method: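 IC50 derived from % remaining activity, taken as the linear fluorescence rate over a 5 min read at 25° C. Substrate H-DPro-Phe-Arg-AFC was used at its Km (Michaelis-Menten) with human FXIIa and serial compound dilutions, 25° C.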

Chain of Plasma Kallikrein (P03952 391-638): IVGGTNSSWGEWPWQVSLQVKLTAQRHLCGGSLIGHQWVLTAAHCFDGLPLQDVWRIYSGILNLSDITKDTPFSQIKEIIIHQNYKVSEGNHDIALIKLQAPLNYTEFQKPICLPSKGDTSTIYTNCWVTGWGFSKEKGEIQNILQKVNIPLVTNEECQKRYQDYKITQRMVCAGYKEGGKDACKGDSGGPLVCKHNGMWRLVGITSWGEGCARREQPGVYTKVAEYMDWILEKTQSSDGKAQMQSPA
Chain of Plasma Kallikrein (P03952 20-390 partner): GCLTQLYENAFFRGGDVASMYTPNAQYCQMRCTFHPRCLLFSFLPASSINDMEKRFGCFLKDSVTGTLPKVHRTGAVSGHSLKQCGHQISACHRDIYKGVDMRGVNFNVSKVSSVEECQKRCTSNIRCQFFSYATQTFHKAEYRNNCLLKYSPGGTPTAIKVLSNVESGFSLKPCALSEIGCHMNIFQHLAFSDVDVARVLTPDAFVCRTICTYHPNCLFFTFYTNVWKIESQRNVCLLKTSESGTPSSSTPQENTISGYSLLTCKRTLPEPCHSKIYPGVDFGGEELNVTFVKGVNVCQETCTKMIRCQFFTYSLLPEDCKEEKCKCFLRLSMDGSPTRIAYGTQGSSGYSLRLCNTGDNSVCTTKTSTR
Chain of Human Factor XIIa (P00748 373-615): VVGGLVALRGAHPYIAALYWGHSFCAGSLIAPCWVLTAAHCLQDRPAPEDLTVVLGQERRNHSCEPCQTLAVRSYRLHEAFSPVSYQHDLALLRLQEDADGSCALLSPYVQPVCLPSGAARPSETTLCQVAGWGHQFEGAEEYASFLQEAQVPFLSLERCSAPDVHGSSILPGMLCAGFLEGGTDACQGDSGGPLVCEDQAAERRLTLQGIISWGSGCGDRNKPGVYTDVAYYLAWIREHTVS

Row | Compound | IC50 [1] [µM] | IC50 [2] [µM]
1 | CNC(=O)c1cc(NCc2ccnc(OCC3CCN(C)CC3)c2)cc2ccncc12 [Example 4463] | > 100 | 40 to 100
2 | CN1CCC(COc2cc(CNc3ccnc4[nH]ccc34)ccn2)CC1 [Example 4459, N-((2-((1-methylpiperidin-4-yl)methoxy)pyridin-4-yl)methyl)-1H-pyrrolo[2,3-b]pyridin-4-amine] | > 100 | 10 to 40
3 | CC(C)(O)[C@@H]1CCN(c2ccc(CNc3cccc4c(N)nccc34)cn2)C1 [Example 1130, (R)-2-(1-(5-(((1-aminoisoquinolin-5-yl)amino)methyl)pyridin-2-yl)pyrrolidin-3-yl)propan-2-ol] | > 40 | 3 to 10
4 | CN1CCC(COc2cc(CNc3cnc4c(N)nccc4c3)ccn2)CC1 [Example 4293, 3-N-({2-[(1-methylpiperidin-4-yl)methoxy]pyridin-4-yl}methyl)-1,7-naphthyridine-3,8-diamine] | > 40 | 0.3 to 1
5 | Nc1ncc(Cl)c2cc(NCc3ccnc(OCC4CCCn5ccnc54)c3)ccc12 (stereo not drawn) [Example 4443, 4-chloro-N6-((2-((5,6,7,8-tetrahydroimidazo[1,2-a]pyridin-8-yl)methoxy)pyridin-4-yl)methyl)isoquinoline-1,6-diamine] | > 40 | 0.1 to 0.3
6 | CC1c2nccn2CCN1c1ccc(CNc2cccc3c(N)nccc23)cn1 (stereo not drawn) [Example 1150, N5-((6-(8-methyl-5,6-dihydroimidazo[1,2-a]pyrazin-7(8H)-yl)pyridin-3-yl)methyl)isoquinoline-1,5-diamine] | > 40 | 0.3 to 1
7 | CN1CCC(CNc2ccc(CNc3cnc4nccnc4c3)cn2)CC1 [Example 1189, N-((6-(((1-methylpiperidin-4-yl)methyl)amino)pyridin-3-yl)methyl)pyrido[2,3-b]pyrazin-7-amine] | > 40 | 40 to 100
8 | CNc1cc(NCc2ccc(NCC3CCN(C)CC3)nc2)ccn1 [Example 1219, N2-Methyl-N4-((6-(((1-methylpiperidin-4-yl)methyl)amino)pyridin-3-yl)methyl)pyridine-2,4-diamine] | > 100 | 3 to 10
9 | Nc1nccc2c(N3CCCC3c3ccc(N4CCn5c(nnc5C(F)F)C4)nc3)cccc12 (stereo not drawn) [Example 10001, 5-(2-(6-(3-(difluoromethyl)-5,6-dihydro-[1,2,4]triazolo[4,3-a]pyrazin-7(8H)-yl)pyridin-3-yl)pyrrolidin-1-yl)isoquinolin-1-amine] | > 40 | 1 to 3
10 | CC(C)(O)[C@H]1CCN(c2ccc(CNc3ccc4c(N)ncc(Cl)c4c3)cn2)C1 [Example 1176, 2-[(3S)-1-(5-{[(1-amino-4-chloroisoquinolin-6-yl)amino]methyl}pyridin-2-yl)pyrrolidin-3-yl]propan-2-ol] | > 40 | 3 to 10
11 | COc1ccc2c(NCc3ccc(NCC4CCN(C)CC4)nc3)ccnc2c1 [Example 1217, 7-methoxy-N-((6-(((1-methylpiperidin-4-yl)methyl)amino)pyridin-3-yl)methyl)quinolin-4-amine] | > 40 | 40 to 100
12 | FC(F)(F)c1nnc2n1CCN(c1ccc(CNc3ccnc4[nH]c(Cl)cc34)cn1)C2 [Example 1280, 2-chloro-N-((6-(3-(trifluoromethyl)-5,6-dihydro-[1,2,4]triazolo[4,3-a]pyrazin-7(8H)-yl)pyridin-3-yl)methyl)-1H-pyrrolo[2,3-b]pyridin-4-amine] | > 40 | 0.3 to 1
13 | Nc1nccc2c(NCc3ccc(OC4CCn5ccnc5C4)nc3)cccc12 (stereo not drawn) [Example 1049, N5-[[6-(5,6,7,8-tetrahydroimidazo[1,2-a]pyridin-7-yloxy)-3-pyridyl]methyl]isoquinoline-1,5-diamine] | > 40 | 0.3 to 1
14 | Cc1cc2c(NCc3ccc(NCC4CCN(C)CC4)nc3)ncnc2[nH]1 [Example 1254, 6-methyl-N-((6-(((1-methylpiperidin-4-yl)methyl)amino)pyridin-3-yl)methyl)-7H-pyrrolo[2,3-d]pyrimidin-4-amine] | > 40 | 10 to 40
15 | CN1CCC(CNc2ccc(CNc3cc(C(=O)O)nc4[nH]ccc34)cn2)CC1 [Example 1263, 4-(((6-(((1-methylpiperidin-4-yl)methyl)amino)pyridin-3-yl)methyl)amino)-1H-pyrrolo [2,3-b]pyridine-6-carboxylic acid] | > 40 | 10 to 40
16 | Nc1ncc(Cl)c2cc(NCc3ccc(OC4CCn5ccnc5C4)nc3)ccc12 (stereo not drawn) [Example 1050, 4-chloro-6-N-[(6-{5H,6H,7H,8H-imidazo[1,2-a]pyridin-7-yloxy}pyridin-3-yl)methyl]isoquinoline-1,6-diamine] | > 40 | 1 to 3
17 | Cc1cnc2[nH]c(Cl)cc2c1NCc1ccc(NCC2CCN(C)CC2)nc1 [Example 1255, 2-chloro-5-methyl-N-((6-(((1-methylpiperidin-4-yl)methyl)amino)pyridin-3-yl)methyl)-1H-pyrrolo[2,3-b]pyridin-4-amine] | > 40 | 3 to 10
18 | CC(C)(O)C1CN(c2ccc(CNc3cccc4c(N)nccc34)cn2)Cc2nccn21 (stereo not drawn) [Example 1135, 2-(7-(5-(((1-aminoisoquinolin-5-yl)amino)methyl)pyridin-2-yl)-5,6,7,8-tetrahydroimidazo[1,2-a]pyrazin-5-yl)propan-2-ol] | > 40 | 3 to 10
19 | Nc1nccc2c(NCc3ccnc(N4CCn5ccnc5C4)c3)cccc12 [Example 5436, N5-((2-(5,6-dihydroimidazo[1,2-a]pyrazin-7(8H)-yl)pyridin-4-yl)methyl)isoquinoline-1,5-diamine] | > 40 | 10 to 40
20 | Nc1nccc2c(NCc3ccc(NCCc4nccn4C(F)F)nc3)cccc12 [Example 1181, N5-((6-((2-(1-(difluoromethyl)-1H-imidazol-2-yl)ethyl)amino)pyridin-3-yl)methyl)isoquinoline-1,5-diamine] | > 40 | 10 to 40
21 | CN1CCN(c2cc(CNc3ccc4c(N)ncc(Cl)c4c3)ccn2)CC1 [Example 4427, 4-chloro-6-N-{[2-(4-methylpiperazin-1-yl)pyridin-4-yl]methyl}isoquinoline-1,6-diamine] | > 40 | 10 to 40

The next lines start with the values.

Row | IC50 [1] [µM] | IC50 [2] [µM] | Compound
22 | > 40 | 10 to 40 | Nc1ncc(Cl)c2cc(NCc3ccc(NCCc4nccn4C(F)F)nc3)ccc12 [Example 1182, 4-chloro-N6-((6-((2-(1-(difluoromethyl)-1H-imidazol-2-yl)ethyl)amino)pyridin-3-yl)methyl)isoquinoline-1,6-diamine]
23 | 10 to 40 | 1 to 3 | Nc1ncc(Cl)c2cc(NCc3ccc(N4CCc5nccn5CC4)nc3)ccc12 [Example 1272, 4-chloro-N6-((6-(5,6,8,9-tetrahydro-7H-imidazo[1,2-d][1,4]diazepin-7-yl)pyridin-3-yl)methyl)isoquinoline-1,6-diamine]
24 | 3 to 10 | 0.1 to 0.3 | CN1CCC(CNc2ccc(CNc3ccc4c(N)ncc(F)c4c3)cn2)CC1 [Example 1195, 4-fluoro-N6-((6-(((1-methylpiperidin-4-yl)methyl)amino)pyridin-3-yl)methyl)isoquinoline-1,6-diamine]
25 | > 40 | 3 to 10 | CN1CCC(CNc2ccc(CNc3cc(Cl)c4cnccc4c3)cn2)CC1 [Example 1208, 8-chloro-N-((6-(((1-methylpiperidin-4-yl)methyl)amino)pyridin-3-yl)methyl)isoquinolin-6-amine]
26 | > 4 | 0.1 to 0.3 | Nc1nccc2c(NCc3ccnc(OCC4CCn5ccnc5C4)c3)cccc12 (single isomer, unassigned) [Example 4431, (R*)-N5-((2-((5,6,7,8-tetrahydroimidazo[1,2-a]pyridin-7-yl)methoxy)pyridin-4-yl)methyl)isoquinoline-1,5-diamine]
27 | 10 to 40 | 40 to 100 | CN1CCC(COc2cc(CNc3ccc4ncc(=O)[nH]c4c3)ccn2)CC1 [Example 4456]
28 | 3 to 10 | 0.1 to 0.3 | Cc1cnc2n1CCC(COc1cc(CNc3cccc4c(N)nccc34)ccn1)C2 (stereo not drawn) [Example 4320, N5-[[2-[(3-methyl-5,6,7,8-tetrahydroimidazo[1,2-a]pyridin-7-yl)methoxy]-4-pyridyl]methyl]isoquinoline-1,5-diamine]
29 | 10 to 40 | 1 to 3 | CC(C)(O)[C@H]1CCN(c2ccc(CNc3cccc4c(N)nccc34)cn2)C1 [Example 1131, 2-[(3S)-1-[5-[[(1-Amino-5-isoquinolyl)amino]methyl]-2-pyridyl]pyrrolidin-3-yl]propan-2-ol]
30 | 3 to 10 | 0.1 to 0.3 | CN1CCC(CNc2ccc(CNc3ccc4c(N)ncc(Cl)c4c3)cn2)CC1 [Example 1193, 4-chloro-N6-((6-(((1-methylpiperidin-4-yl)methyl)amino)pyridin-3-yl)methyl)isoquinoline-1,6-diamine]
31 | 10 to 40 | 0.1 to 0.3 | Nc1ncc(Cl)c2cc(NCc3ccnc(OCC4CCn5ccnc5C4)c3)ccc12 (stereo not drawn) [Example 4300, 4-Chloro-N6-[[2-(5,6,7,8-tetrahydroimidazo[1,2-a]pyridin-7-ylmethoxy)-4-pyridyl]methyl]isoquinoline-1,6-diamine]
32 | 3 to 10 | 1 to 3 | CN1CCC(OCc2ccc(CN(C)c3ccc4c(N)nccc4c3)cc2)CC1 [Example 2190, N6-methyl-N6-(4-(((1-methylpiperidin-4-yl)oxy)methyl)benzyl)isoquinoline-1,6-diamine]
33 | 10 to 40 | 10 to 40 | CN1CCC(OCc2ccc(CNc3ccc4cnc(N)cc4c3)cc2)CC1 [Example 2189, N6-(4-(((1-methylpiperidin-4-yl)oxy)methyl)benzyl)isoquinoline-3,6-diamine]
